Experimental data reported in publication PMC12302426, “Dihydrokoumine, a dual-target analgesic with reduced side effects isolated from a traditional Chinese medicine” (Journal of Advanced Research, 2024).

How the values were obtained:
HEK293 cells = assay: DMR assay in untransfected HEK293 cells (background); format: cell-based; conditions: HEK293 cells without MOR
Experimental: (§1) DMR assays were performed using an Epic® BT system (Corning, NY, USA). All used cell lines were directly seeded in Epic 384-well biosensor microplates with a seeding density of 25,000 cells per well. After being cultured for about 22 h, the cells formed a monolayer with a confluency of about 95 % in the cell culture medium. Then the cells were manually washed using assay buffer (1 × HBSS buffer, 10 mM HEPES, pH = 7.4) and maintained in 30 μL of the assay buffer for 1 h. All samples were dissolved in DMSO and diluted freshly with the assay buffer containing 0.1 % BSA.
The DMR assays were conducted as follows. […] In the case of the DMR desensitization assay, cells were pretreated with analytes for one hour before introducing a specific agonist at the indicated concentration, and the agonist-induced DMR signals were monitored for one hour. Finally, for the DMR antagonist assay, cells underwent a 1-hour pretreatment with an antagonist before the addition of a specific agonist at the indicated concentration, and subsequent DMR signals were recorded over one hour.

mu opioid receptor (MOR) = molecular target: T1, mu opioid receptor (MOR) (Homo sapiens, UniProt P35372); assay: FLIPR Ca2+ assay in HEK293T-Mu cells; format: cell-based
T1 construct: expressed in transfected cells; host or cells: HEK293T-Mu
T1 sequence (P35372 whole entry): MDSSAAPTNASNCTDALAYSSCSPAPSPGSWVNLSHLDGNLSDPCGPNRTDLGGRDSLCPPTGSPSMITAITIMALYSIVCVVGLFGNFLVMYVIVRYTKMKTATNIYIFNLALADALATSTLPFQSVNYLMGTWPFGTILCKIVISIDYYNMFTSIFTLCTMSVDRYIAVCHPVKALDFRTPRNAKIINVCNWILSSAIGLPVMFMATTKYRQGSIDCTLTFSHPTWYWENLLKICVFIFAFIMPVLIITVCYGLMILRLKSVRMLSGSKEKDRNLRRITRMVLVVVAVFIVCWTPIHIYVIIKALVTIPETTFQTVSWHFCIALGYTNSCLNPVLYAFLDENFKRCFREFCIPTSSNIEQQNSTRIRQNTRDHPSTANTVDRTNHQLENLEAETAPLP
Experimental: (§2) FLIPR assay was carried out as reported earlier. Cell lines were seeded in 96-well plates with black walls (Greiner, USA) at 8.0 × 10^4 cells per well. After approximately 22 h of incubation, the cells were exposed to Calcium-6 dye (Molecular Devices, USA) in HBSS buffer supplemented with 20 mM HEPES (pH 7.4) at 37°C for one hour. Samples, redissolved in DMSO and housed in 96-well drug plates, underwent dilution with FLIPR buffer and subsequent automated introduction to the cells. […] In FLIPR antagonist experiments, cells were pre-incubated with the compound for 10 min prior to introducing a specified concentration of agonist. Results were presented as fluorescence (arbitrary units) plotted against time.

M2R = molecular target: T2, M2R (Homo sapiens, UniProt P08172); assay: FLIPR assay in HEK293-M2 cells (carbachol-induced Ca2+); format: cell-based; conditions: DK pretreatment one hour
T2 construct: expressed in transfected cells
T2 sequence (P08172 whole entry): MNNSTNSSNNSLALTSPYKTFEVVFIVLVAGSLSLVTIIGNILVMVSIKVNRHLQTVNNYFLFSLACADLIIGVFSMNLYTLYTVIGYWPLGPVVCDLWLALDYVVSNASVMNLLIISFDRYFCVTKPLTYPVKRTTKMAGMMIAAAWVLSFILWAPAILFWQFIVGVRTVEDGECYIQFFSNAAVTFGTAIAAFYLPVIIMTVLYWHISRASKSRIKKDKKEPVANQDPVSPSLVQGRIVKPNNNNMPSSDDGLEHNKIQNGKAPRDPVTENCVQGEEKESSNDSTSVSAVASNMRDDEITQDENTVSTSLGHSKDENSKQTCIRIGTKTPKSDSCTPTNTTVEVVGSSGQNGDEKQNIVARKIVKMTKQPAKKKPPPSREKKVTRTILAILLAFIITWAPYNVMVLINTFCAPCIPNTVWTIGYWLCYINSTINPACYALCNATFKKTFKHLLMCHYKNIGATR
Experimental: as §2, with “In FLIPR antagonist experiments, cells were pre-incubated with the compound for 10 min prior to introducing a specified concentration of agonist.” left out

M5R = molecular target: T3, M5R (Homo sapiens, UniProt P08912); assay: FLIPR assay in CHO-M5 cells (carbachol-induced Ca2+); format: cell-based; conditions: DK pretreatment one hour
T3 construct: expressed in transfected cells
T3 sequence (P08912 whole entry): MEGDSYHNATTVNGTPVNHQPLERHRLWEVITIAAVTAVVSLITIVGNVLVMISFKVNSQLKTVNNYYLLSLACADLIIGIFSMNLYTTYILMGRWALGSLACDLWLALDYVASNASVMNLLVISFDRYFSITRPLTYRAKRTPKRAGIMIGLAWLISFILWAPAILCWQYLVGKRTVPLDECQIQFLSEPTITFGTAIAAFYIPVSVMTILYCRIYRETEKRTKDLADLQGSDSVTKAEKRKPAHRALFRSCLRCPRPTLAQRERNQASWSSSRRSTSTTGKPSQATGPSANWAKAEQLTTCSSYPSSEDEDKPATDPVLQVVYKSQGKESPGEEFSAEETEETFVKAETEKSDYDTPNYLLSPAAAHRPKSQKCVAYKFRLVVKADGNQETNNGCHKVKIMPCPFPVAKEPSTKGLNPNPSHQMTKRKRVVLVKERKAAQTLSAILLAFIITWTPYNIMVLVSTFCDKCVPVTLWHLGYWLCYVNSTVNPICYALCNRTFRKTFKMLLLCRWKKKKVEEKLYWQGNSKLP
Experimental: as §2, with “In FLIPR antagonist experiments, cells were pre-incubated with the compound for 10 min prior to introducing a specified concentration of agonist.” left out

orphan receptor GPR35 = molecular target: T4, orphan receptor GPR35 (Homo sapiens, UniProt Q9HC97); assay: DMR desensitization assay, CHO-K1-hGPR35, probe zaprinast; format: cell-based; conditions: 100 μM DK
T4 construct: expressed in transfected cells; host or cells: CHO-K1-hGPR35
T4 sequence (Q9HC97 whole entry): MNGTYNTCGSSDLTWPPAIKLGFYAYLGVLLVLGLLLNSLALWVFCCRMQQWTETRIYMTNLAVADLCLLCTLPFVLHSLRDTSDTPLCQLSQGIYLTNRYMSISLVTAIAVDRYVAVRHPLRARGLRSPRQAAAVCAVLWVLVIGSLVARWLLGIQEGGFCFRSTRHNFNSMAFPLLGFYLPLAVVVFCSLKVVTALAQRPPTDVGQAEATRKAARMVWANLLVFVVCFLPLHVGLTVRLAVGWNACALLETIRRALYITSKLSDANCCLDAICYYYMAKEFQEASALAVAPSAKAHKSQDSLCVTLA
Experimental: as §1
The receptor selectivity was evaluated against a set of G protein-coupled receptors (GPCRs), including opioid receptor (Delta/Kappa/NOP), dopamine receptor (D1/D2), orphan receptor (GPR35), adrenergic receptor (α2A/β2), serotonin receptor (5HT2A), histamine receptor (H1) and cannabinoid receptor (CB1). Following a 1-hour pretreatment with DK, a 2-min baseline was established before introducing probes and monitoring DMR signals for another hour. The cells and probes were as follows: Delta, HEK293-Delta, SNC162; Kappa, HEK293-Kappa, ICI199441; NOP, HEK293-NOP, MCOPPB; D1, HEK293-D1, dopamine; D2, HEK293-D2, dopamine; GPR35, CHO-K1-hGPR35, zaprinast; 5HT2A, HEK293-5HT2A, 5-hydroxytryptamine; α2A, HEK293-α2A, L-Noradrenaline; β2, A431, isoprenaline; H1, A431, histamine; CB1, CHO-K1-CB1, CP 55940. […]

C57BL/6 male mice = assay: Formalin paw test; format: in vivo
Experimental: The formalin test in mice was conducted following established procedures. Six-week-old C57BL/6 male mice were used in […] (n = 6). Mice were individually acclimated in a 4-liter glass beaker for 30 min prior to the test. Solvent mixture, […], morphine (5 mg/kg), or DK (20, 40 mg/kg) were injected intraperitoneally (5 mL/kg) 15 min prior to formalin injection. Formalin solution (5 %, 25 μL) was injected into the dorsal surface of the right hind paw using a 50 μL Hamilton syringe with a 30-gauge needle. […] Evaluation of MOR agonistic activity of dihydrokoumine, naloxone (2 mg/kg) was first injected intraperitoneally, immediately followed by the injection of morphine (5 mg/kg) or DK (20 mg/kg).

HEK293T cells = assay: Cytotoxicity assay (CCK-8), HEK293T; format: cell-based; conditions: 24 h
Experimental: HEK293T, CHO, and HUVEC cell lines were cultured overnight in 96-well plates before exposure to compounds for 24 h. Cell viability was evaluated using the Cell Counting Kit-8 (CCK-8, Beyotime Biotechnology, China), and absorbance at 450 nm was measured with a microplate reader. Cell survival rates were calculated relative to control conditions.

[1] = Pharmacokinetics, blood-brain barrier permeability; format: in vivo, C57BL/6 male mice
Experimental: Blood‐brain barrier permeability evaluation was as follows. C57BL/6 male mice (about 25 g) were used in evaluation of blood‐brain barrier permeability (n = 3). Mice were given a single dose of DK (20 mg/kg, 5 mL/kg, i.p.) through intraperitoneal injection. Blood (300 μL) was collected at 0.167, 0.5, 1, 2, 3 and 4 h into EDTA tubes. Plasma was obtained by mixing with acetonitrile and centrifugation (3000 r/min, 10 min). Meanwhile, brains were excised after saline perfusion at these time points. Brain samples were grinded (70 Hz, 90 s) and sonicated (30 s) to break up the tissue, followed by centrifugation (15,000 r/min, 10 min, […]) to obtain brain sample.
Brain and plasma drug levels were measured by LC-30AD (Shimadzu Corporation Kyoto, Japan) and SCIEX QTRAP-6500 (AB Sciex, Foster City, CA, USA) and calculated by comparing with internal standard (koumine, 200 ng/mL). The used column was Waters ACQUITY UPLC BEH C18 (2.1*150 mm, 1.7 μm); the mobile phase was composed of (A) 0.1 % FA in water and (B) 0.1 % FA in ACN; the elution gradient was 20 % B (0–3 min), 20–40 % B (3–5 min), 40–95 % B (5–6 min); the flow rate was 0.3 mL/min; and detection was in the positive mode.

C=CC12CN(C)C3CC14c1ccccc1NC4C1CC2C3CO1 (stereo not drawn) [DK]
background DMR response (HEK293 cells): No background response | Ca2+ response after naloxone pretreatment (mu opioid receptor (MOR); 100 μM DK): significantly decreased by naloxone | maximum Ca2+ response compared with endomorphin-1 (mu opioid receptor (MOR); FLIPR): less than half of the maximum Ca^2+ response of endomorphin-1 | inhibition of carbachol-induced Ca2+ response (M2R): could not concentration-dependently inhibit | inhibition of carbachol-induced Ca2+ response (M5R): could not concentration-dependently inhibit | reduction of probe DMR response (desensitization) (orphan receptor GPR35): almost unable to reduce the response | effect of naloxone on antinociception in formalin test (C57BL/6 male mice; DK 20 mg/kg, naloxone 2 mg/kg): Naloxone antagonized the antinociception of DK | licking time in Phase I and Phase II (C57BL/6 male mice; DK 20, 40 mg/kg i.p., formalin 5 %): remarkable decrease in the licking time in Phase I at both doses and in Phase II at high doses | cytotoxicity (cell viability) (HEK293T cells): had a little effect on HEK293T cells but not in a concentration-dependent manner | Kp ([1]; male, C57BL/6, mouse, brain/plasma, ip, 20 mg/kg, read-out: Kp (AUCbrain/AUCplasma)): 1.27 | AUC ([1]; male, C57BL/6, mouse, ip, mice, plasma, i.p., 20 mg/kg (method), read-out: (AUC)0-4 h in plasma): 733 ng·h/mL | (AUC)0-4 h in brain ([1]; mice, brain, i.p., 20 mg/kg (method)): 933.4 ng·h/g
